Values joined by “and” are separate entries in the source; they are usually repeats but may differ in a detail not shown here. Identical values can stand only once. “Also recorded” adds a separate entry of the source.
Key:
healthy lymphangion = experiment: Rescue of valve lock in isolated pressurized lymphangions under elevated pressure; design: species or system mouse
From the text: FIG. 1A and FIG. 1B depict single (FIG. 1A) and multiple (FIG. 1B) lymphangion preparations showing measurements of pressure, diameter and valve position. FIG. 1C and FIG. 1D depict 1-valve preparations used for valve closure (FIG. 1C) and back-leak (FIG. 1D) tests. Color coding applies to pressure, diameter & valve traces shown in all subsequent figures; blue=upstream. black=mid segment, red=downstream. Pin and Pout are controlled with a computer-based servo controller; PL is intraluminal pressure measured with a servo-null micropipette inserted through the wall; diameters are measured with computer-based edge detection^(15); valve positions are determined using densitometry windows as shown^(21,22,69,71).
Studies were made of single and multiple lymphangions from mice under hydrostatic conditions simulating those experienced in primary and secondary lymphedema. When a progressive rise in outflow pressure is imposed, simulating the pressure load on the vessel in a dependent extremity, the normal response of the vessel is a myogenic constriction to Pout elevation (arrow, described in detail in ref.^(71)) with continued pumping, such that internal pressure generation slightly exceeds Pout during systole of each contraction cycle (*); as a result the output valve opens briefly in systole, allowing partial ejection. […]

mouse popliteal vessel = experiment: Contractile function of isolated lymphatic vessels with impaired contractility
From the text: FIG. 9A, FIG. 9B, FIG. 9C and FIG. 9D depict the effect of norepinephrine (NE) on vessels with impaired contractility. […] FIG. 9C depicts that NE enhanced contractions in 13/14 vessels with impaired contractions and (FIG. 9D) induced >3.5-fold increase in FREQ (contraction frequency) and 2-fold increase in AMP (contraction amplitude) in a subset 8 vessels that had control contractions.
Data has been obtained to support the contention that NE has the potential not only to relieve valve lock (FIG. 3C) but also to enhance pump function. […] It is presumed that NE works by enhancing inotropy under these conditions and that it may be particularly effective in vessels fatigued or in partial pump failure from chronic pressure overload.

[1] = test system: human mesenteric lymphatic vessels; experiment: Isolated pressurized human mesenteric lymphatic vessel segments, response to NE; conditions: 33 nM NE
Procedure: Recently, 1-, 2- and 3-valve segments of human mesenteric lymphatic vessels obtained following bariatric surgery were studied and their responses to Pout and/or Pin elevation and NE were tested. These are the first such measurements in isolated pressurized human lymphatics. […] Like rat/mouse vessels, the valves are biased to be open in the absence of a pressure gradient (arrowhead). Valve gating curves or tests for valve lock were unable to be performed because the vessels were too large to be studied on the microscope used with the pressure controller. However, it was encouraging to find that every response tested was similar to those of rat/mouse vessels.

[2] = test system: dysfunctional lymphatic vessels; experiment: KATP channel inhibitor / L-type calcium channel agonist on diseased mouse tissue sample; conditions: single agent, FIG. 20
Procedure: Glibendamide was then applied to a disease mouse tissue sample. […] The combination of glibenclamide and BayK8644 was then evaluated in a diseased mouse tissue sample. […] BayK8644, along with BayR5417 and FPL64176, are exemplary L-type calcium channel agonists.

[3] = test system: dysfunctional lymphatic vessels; experiment: Phenylephrine on dysfunctional mouse lymphatic vessel; conditions: mouse diseased tissue sample, FIG. 18
[4] = subset of 8 vessels that had control contractions

NC[C@H](O)c1ccc(O)c(O)c1 [NE, norepinephrine]
relief of valve lock (healthy lymphangion; pressure remains elevated, dose that counteracts the loss of tone but does not fuse contractions): relieves valve lock; also recorded: reverses valve lock; also recorded: can be rescued | working range of a lymphangion pumping against an output load (healthy lymphangion; prophylactic application, vessel not yet failed): can be extended | dose-dependent effect on frequency, tone and inotropy (mouse popliteal vessel; 10^−8 to 10^−7M, FIG. 9): increases in frequency, tone and inotropy | effect on contractions and pumping of vessels with impaired contractility (mouse popliteal vessel; fatigued or weakly contracting vessels): induce tone and spontaneous contractions; also recorded: induced robust contractions that persisted when pressure was elevated; also recorded: restores contraction and pumping; also recorded: induces spontaneous contractions; also recorded: consistent, large-amplitude contractions | likelihood of having spontaneous contractions (mouse popliteal vessel; preliminary analysis, FIG. 9C): doubles | increase in AMP (contraction amplitude) (mouse popliteal vessel; [4]): 2 fold | increase in FREQ (contraction frequency) (mouse popliteal vessel; [4]): 3.5 fold and > 3.5 fold | vessels with enhanced contractions (mouse popliteal vessel; vessels with impaired contractions, knock-out mouse developing hindlimb edema): 13/14 | effect on tone [1]: increase in tone | increase in AMP [1]: ~50% | increase in FREQ [1]: ~2 fold

COc1ccc(Cl)cc1C(=O)NCCc1ccc(S(=O)(=O)NC(=O)NC2CCCCC2)cc1 [glibenclamide]
effect on contractions and pumping functions [2]: improves/restores normal contractions and pumping functions

CNC[C@H](O)c1cccc(O)c1 [PE, phenylephrine]
effect on contraction and pumping [3]: restored contraction and pumping; also recorded: improves/restores normal contractions and pumping functions
